Results on one molecule are retold here after patent publication US7288760B2, “Conformational real-time atmospheric and environmental characterization sampling apparatus and method” (Battelle Memorial Institute, priority 2005, dated 2007).

The format of this data set is in vivo. The settings on record: dermal delivery via glass cup bulb, approximately 0.0007 g toluene, ~253 g rat, 10-L glass sampling chamber, quadrupole MS m/z=92, throughput 195 mL/min. The method, then:
FIG. 5a illustrates a system 200 for real-time monitoring and/or analysis of analytes released to a sampling environment 30 in conjunction with animal exposure studies, according to another embodiment of the invention. In Example 4 below, a live animal (e.g., rat) 32 placed in a sampling environment 30 is dosed or treated with a chemical or a drug delivered, e.g., via a dermal cup bulb 34 in conjunction with a precision syringe 36 or other delivery means, including but not limited to, dermal patch, injection, or the like. Environment 30 is monitored in real-time via coupling with manifold 20 at the breathing (clearance) rate of the animal until desired target analytes, metabolites, and/or chemical indicators of interest are detected or quantified in the mass-selective detector or instrument comprising system 10. […]
A custom made ˜3-cc glass cup bulb 34 including a septum (not shown) made of silicon sealant (Dow Corning, Baltimore, Md.) was affixed to the dermis of an anesthetized ˜253 g rat 32 using a veterinary bonding compound (e.g., vet bond®, 3M, St. Paul, Minn.) and allowed to affix for ˜12 to 14 hours. […] Alternatively, breathing rate can be determined using a breathing plethysmograph (e.g., a double chamber plethysmograph, Buxco Electronics, Inc., Wilmington, N.C.). […]

On to `Cc1ccccc1` [toluene], for which the “Time from exposure to detection of the toluene analyte from the respired breath of animal” value is listed as “about 30 minutes”.
